# Experimental data as given in patent US11130778B2, “CD73 inhibitors” (ORIC Pharmaceuticals, Inc., priority 2019, dated 2021).
# Biological target: T1, CD73 (Homo sapiens, UniProt P21589)
# T1 sequence (P21589 27-549): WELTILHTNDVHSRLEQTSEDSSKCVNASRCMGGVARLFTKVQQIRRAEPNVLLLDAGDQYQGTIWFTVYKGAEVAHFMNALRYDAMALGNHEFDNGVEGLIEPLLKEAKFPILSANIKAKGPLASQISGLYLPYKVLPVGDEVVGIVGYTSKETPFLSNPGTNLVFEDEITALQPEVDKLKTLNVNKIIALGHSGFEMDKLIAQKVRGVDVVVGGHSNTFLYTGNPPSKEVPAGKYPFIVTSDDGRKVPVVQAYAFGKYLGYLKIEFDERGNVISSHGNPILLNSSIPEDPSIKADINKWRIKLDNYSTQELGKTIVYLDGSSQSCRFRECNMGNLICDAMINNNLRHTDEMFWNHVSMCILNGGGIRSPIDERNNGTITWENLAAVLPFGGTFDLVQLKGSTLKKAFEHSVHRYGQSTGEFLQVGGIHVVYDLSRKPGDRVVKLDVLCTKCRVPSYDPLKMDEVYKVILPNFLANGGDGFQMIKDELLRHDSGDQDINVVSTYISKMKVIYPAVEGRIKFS
# Assay: Biochemical assay of CD73 inhibition (Malachite Green)
# Conditions: CD73 0.3208 nM, AMP 15 μM, Tris-HCl pH 7.4, Malachite Green absorbance readout; read-out: CD73_Biochem
# Protocol: Example A1: Biochemical Assay
# Assay Reaction Conditions
# • Assay Volume: 70 μl • Reaction Volume: 50 μl • CD73: 0.3208 nM • AMP:15 μM • Assay Buffer: 2 5 mM Tris-HCL, pH 7.4, 0.01% Brij-35, 0.01% BSA, 5 mM MgCl2 Assay Procedure:
# Made dose titration of testing compounds in assay buffer, 10 points 1/2 log titrations in duplicates starting at 100 μM.
# Added 25 µl of CD73 to each well for a final concentration of […].
# Incubated at RT for 15 min.
# Added 25 µl of AMP to each well for a final concentration of 15 μM.
# Incubated at RT for 10 min.
# Added […] of Malachite Green Reagent A, incubate at RT for 10 min.
# Added […] of Malachite Green Reagent B, incubate at RT for 45 min.
# Read the Absorbance on Envision plate reader using excitation filter: Cy5 […].
# The ability of the compounds disclosed herein to inhibit CD73 activity was quantified and the respective IC50 values were determined. Table 2 provides the biochemical IC50 values of compounds disclosed herein.
row,SMILES,IC50 [µM]
1,"COC[C@@](Cc1nn[nH]n1)(OC[C@H]1O[C@@H](n2ncc3c(NCC(C)C)nc(Cl)nc32)[C@H](O)[C@@H]1O)P(=O)(O)O [Example 34, ((S)-2-(((2R,3S,4R,5R)-5-(6-chloro-4-(isobutylamino)-1H-pyrazolo[3,4-d]pyrimidin-1-yl)-3,4-dihydroxytetrahydrofuran-2-yl)methoxy)-1-methoxy-3-(2H-tetrazol-5-yl)propan-2-yl)phosphonic acid]",0.01 to 0.1
2,"COCCOCC(COCc1nnn[nH]1)(OC[C@H]1O[C@@H](n2ncc3c(NC4CCCC4)nc(Cl)nc32)[C@H](O)[C@@H]1O)P(=O)(O)O (stereo partly drawn) [Example 40, (1-((1H-tetrazol-5-yl)methoxy)-2-(((2R,3S,4R,5R)-5-(6-chloro-4-(cyclopentylamino)-1H-pyrazolo[3,4-d]pyrimidin-1-yl)-3,4-dihydroxytetrahydrofuran-2-yl)methoxy)-3-(2-methoxyethoxy)propan-2-yl)phosphonic acid]",≤ 0.01
3,"CC(Cc1nn[nH]n1)(OC[C@H]1O[C@@H](n2ncc3c(NC4CCCC4)nc(Cl)nc32)[C@H](O)[C@@H]1O)P(=O)(O)O (stereo partly drawn) [Example 43, (2-(((2R,3S,4R,5R)-5-(6-chloro-4-(cyclopentylamino)-1H-pyrazolo[3,4-d]pyrimidin-1-yl)-3,4-dihydroxytetrahydrofuran-2-yl)methoxy)-1-(2H-tetrazol-5-yl)propan-2-yl)phosphonic acid]",≤ 0.01
4,"COCC(OC[C@H]1O[C@@H](n2ncc3c(NC4CCCC4)nc(Cl)nc32)[C@H](O)[C@@H]1O)(C(=O)O)P(=O)(O)O (stereo partly drawn) [Example 46, 2-(((2R,3S,4R,5R)-5-(6-chloro-4-(cyclopentylamino)-1H-pyrazolo[3,4-d]pyrimidin-1-yl)-3,4-dihydroxytetrahydrofuran-2-yl)methoxy)-3-methoxy-2-phosphonopropanoic acid]",≤ 0.01
5,O=P(O)(O)[C@](CO)(Cc1nn[nH]n1)OC[C@H]1O[C@@H](n2ncc3c(N[C@@H]4CCc5ccccc54)nc(Cl)nc32)[C@H](O)[C@@H]1O [Example 47],0.01 to 0.1
6,"O=P(O)(O)[C@@](CO)(Cc1nn[nH]n1)OC[C@H]1O[C@@H](n2ncc3c(N[C@@H]4CCc5ccccc54)nc(Cl)nc32)[C@H](O)[C@@H]1O [Example 48, ((R)-2-(((2R,3S,4R,5R)-5-(6-chloro-4-(((R)-2,3-dihydro-1H-inden-1-yl)amino)-1H-pyrazolo[3,4-d]pyrimidin-1-yl)-3,4-dihydroxytetrahydrofuran-2-yl)methoxy)-1-hydroxy-3-(2H-tetrazol-5-yl)propan-2-yl)phosphonic acid]",≤ 0.01
7,"O=P(O)(O)C(CO)(OC[C@H]1O[C@@H](n2ncc3c(NC4CCCC4)nc(Cl)nc32)[C@H](O)[C@@H]1O)c1nn[nH]n1 (stereo partly drawn) [Example 49, (1-(((2R,3S,4R,5R)-5-(6-chloro-4-(cyclopentylamino)-1H-pyrazolo[3,4-d]pyrimidin-1-yl)-3,4-dihydroxytetrahydrofuran-2-yl)methoxy)-2-hydroxy-1-(2H-tetrazol-5-yl)ethyl)phosphonic acid]",0.01 to 0.1
8,"O=P(O)(O)[C@@](CO)(Cc1nn[nH]n1)OC[C@H]1O[C@@H](n2ncc3c(NC4CCCC4)nc(C#CC4CC4)nc32)[C@H](O)[C@@H]1O [Example 50, ((R)-2-(((2R,3S,4R,5R)-5-(4-(cyclopentylamino)-6-(cyclopropylethynyl)-1H-pyrazolo[3,4-d]pyrimidin-1-yl)-3,4-dihydroxytetrahydrofuran-2-yl)methoxy)-1-hydroxy-3-(2H-tetrazol-5-yl)propan-2-yl)phosphonic acid]",≤ 0.01
9,"O=c1[nH]c(COCC(CO)(OC[C@H]2O[C@@H](n3ncc4c(NC5CCCC5)nc(Cl)nc43)[C@H](O)[C@@H]2O)P(=O)(O)O)no1 (stereo partly drawn) [Example 51, (2-(((2R,3S,4R,5R)-5-(6-chloro-4-(cyclopentylamino)-1H-pyrazolo[3,4-d]pyrimidin-1-yl)-3,4-dihydroxytetrahydrofuran-2-yl)methoxy)-1-hydroxy-3-((5-oxo-4,5-dihydro-1,2,4-oxadiazol-3-yl)methoxy)propan-2-yl)phosphonic acid]",≤ 0.01
10,"O=P(O)(O)[C@](CO)(COCc1nn[nH]n1)OC[C@H]1O[C@@H](n2ncc3c(NC4CCC4)nc(Cl)nc32)[C@H](O)[C@@H]1O [Example 52, ((R)-1-((1H-tetrazol-5-yl)methoxy)-2-(((2R,3S,4R,5R)-5-(6-chloro-4-(cyclobutylamino)-1H-pyrazolo[3,4-d]pyrimidin-1-yl)-3,4-dihydroxytetrahydrofuran-2-yl)methoxy)-3-hydroxypropan-2-yl)phosphonic acid]",≤ 0.01

# More lines, now with the values ahead:
row,IC50 [µM],SMILES
1,≤ 0.01,"CC(C)CNc1nc(Cl)nc2c1cnn2[C@@H]1O[C@H](CO[C@](CO)(Cc2nn[nH]n2)P(=O)(O)O)[C@@H](O)[C@H]1O [Example 33, ((R)-2-(((2R,3S,4R,5R)-5-(6-chloro-4-(isobutylamino)-1H-pyrazolo[3,4-d]pyrimidin-1-yl)-3,4-dihydroxytetrahydrofuran-2-yl)methoxy)-1-hydroxy-3-(2H-tetrazol-5-yl)propan-2-yl)phosphonic acid]"
2,≤ 0.01,"COC[C@](Cc1nn[nH]n1)(OC[C@H]1O[C@@H](n2ncc3c(NCC(C)C)nc(Cl)nc32)[C@H](O)[C@@H]1O)P(=O)(O)O [Example 35, ((R)-2-(((2R,3S,4R,5R)-5-(6-chloro-4-(isobutylamino)-1H-pyrazolo[3,4-d]pyrimidin-1-yl)-3,4-dihydroxytetrahydrofuran-2-yl)methoxy)-1-methoxy-3-(2H-tetrazol-5-yl)propan-2-yl)phosphonic acid]"
3,≤ 0.01,"COC[C@](OC[C@H]1O[C@@H](n2ncc3c(NC4CCCC4)nc(Cl)nc32)[C@H](O)[C@@H]1O)(C(=O)NO)P(=O)(O)O [Example 36, ((R)-2-(((2R,3S,4R,5R)-5-(6-chloro-4-(cyclopentylamino)-1H-pyrazolo[3,4-d]pyrimidin-1-yl)-3,4-dihydroxytetrahydrofuran-2-yl)methoxy)-1-(hydroxyamino)-3-methoxy-1-oxopropan-2-yl)phosphonic acid]"
4,≤ 0.01,"COC[C@@](OC[C@H]1O[C@@H](n2ncc3c(NC4CCCC4)nc(Cl)nc32)[C@H](O)[C@@H]1O)(C(=O)NO)P(=O)(O)O [Example 37, ((S)-2-(((2R,3S,4R,5R)-5-(6-chloro-4-(cyclopentylamino)-1H-pyrazolo[3,4-d]pyrimidin-1-yl)-3,4-dihydroxytetrahydrofuran-2-yl)methoxy)-1-(hydroxyamino)-3-methoxy-1-oxopropan-2-yl)phosphonic acid]"
5,≤ 0.01,"COC[C@](COCc1nn[nH]n1)(OC[C@H]1O[C@@H](n2ncc3c(NC4CCCC4)nc(Cl)nc32)[C@H](O)[C@@H]1O)P(=O)(O)O [Example 38, ((S)-1-((2H-tetrazol-5-yl)methoxy)-2-(((2R,3S,4R,5R)-5-(6-chloro-4-(cyclopentamino)-1H-pyrazolo[3,4-d]pyrimidin-1-yl)-3,4-dihydroxytetrahydrofuran-2-yl)methoxy)-3-methoxypropan-2-yl)phosphonic acid]"
6,≤ 0.01,"COC[C@@](COCc1nn[nH]n1)(OC[C@H]1O[C@@H](n2ncc3c(NC4CCCC4)nc(Cl)nc32)[C@H](O)[C@@H]1O)P(=O)(O)O [Example 39, ((R)-1-((2H-tetrazol-5-yl)methoxy)-2-(((2R,3S,4R,5R)-5-(6-chloro-4-(cyclopentylamino)-1H-pyrazolo[3,4-d]pyrimidin-1-yl)-3,4-dihydroxytetrahydrofuran-2-yl)methoxy)-3-methoxypropan-2-yl)phosphonic acid]"
